The text below walks through data of patent publication US8044103B2, “Cyclic dipeptides and azetidinone compounds and their use in treating CNS injury and neurodegenerative disorders” (Georgetown University, priority 1998, dated 2011).

SMILES strings stand for the structures.

The conditions of data set [1]: in vivo; cited from earlier work.
Data set [2] concerns traumatic spinal cord injury in cats. The settings on record: cited from earlier work.
Data set [3] relates to cats subjected to brainstem compression. Particulars: cited from earlier work.
Data set [4] has as its system head impact trauma in mice. Particulars: cited from earlier work.
Data set [5] deals with lightly anesthetized rats. The experiment in a line: Core body temperature in lightly anesthetized uninjured rats (analeptic study). Format: in vivo. Particulars: 1 mg/kg i.v.; over 60 min following anesthesia; p<0.001 vs all other groups at 20-60 min. Here is the method: (§1) Additional groups of uninjured rats were tested for autonomic and analeptic responses immediately prior to and up to 60 min. following drug administration. For the analeptic study, rats were first anesthetized with 40 mg/kg i.p. sodium pentabarbitone and placed onto an unheated pad on the laboratory bechtop at room temperature (22±2° C.). A thermister probe was placed in the rectum to measure core body temperature. After a 10 min. period, rats were administered vehicle or drug as described below via the tail vein. Time to recovery of the righting-reflex was subsequently determined while temperature was recorded at 5 min. intervals for all animals. […]
(§2) Continuous variables compared across groups were examined using an analysis of variance (ANOVA) followed by Bonferroni correction (rightin reflex). Continuous variables subjected to repeated measurements over a period of time (cardiovascular and core temperature measurements) were analyzed using a repeated measurements ANOVA followed by Tukey's pairwise comparison at each time point. Ordinal measurements (composite neurological scores) were evaluated using the non-parametric Kruskal-Wallis ANOVA with individual, non-parametric Mann-Whitney U-tests. […]

In data set [6] the test system is lightly anesthetized rats. The experiment in a line: Latency to recover righting reflex after light anesthesia (analeptic study). Format: in vivo. Particulars: i.v., doses of 1 mg/kg and 10 mg/kg (FIG. 11); after 40 mg/kg i.p. sodium pentobarbitone. The protocol: as §1, §2
Data set [7] deals with fully conscious and unrestrained rats. The experiment in a line: Mean arterial blood pressure in conscious unrestrained rats (autonomic study). Format: in vivo. Particulars: 1 mg/kg i.v., over the duration of testing.
Excerpt: To assess autonomic responses to the novel TRH analogues, a separate group of rats were anesthetized with 4% isoflurane (1.5 L/min). Catheters were then placed into the right artoid artery and right jugular vein and exteriorized at the back of the neck. Rats were separated one per cage and allowed to recover from anesthesia. The exteriorized catheters were suspended above the rat to prevent biting. Mean […] blood pressure (MAP) was continuously recorded via a transducer connected directly to the arterial catheter for the duration of the study. At 1 h following catheter placement, rats were administered vehicle or drug via the catheter in the jugular vein as described below. […]
as §2

The test system of data set [8] is central facilitating activity. The settings on record: cited from earlier work.
Data set [9] relates to rats following trauma. The settings on record: cited from earlier work.
In data set [10] the test system is mice following controlled cortical impact injury (CCI). The experiment in a line: Beam walking task after controlled cortical impact injury (chronic neurological recovery). Format: in vivo, Male C57Bl/6 mice. Particulars: 1 mg/kg following CCI injury; small group size (n=6). Here is the method:
Male C57Bl/6 mice (20-25 g) were obtained from Taconic Farms (Germantown, N.Y.) and housed in an area directly adjoining surgical and behavioral rooms for at least 1 week prior to any procedures. All mice were maintained at a constant temperature (22±2° C.) and a 12 hr light/dark cycle, with lights on at 6 am and all behavioral testing performed during the light cycle. Food and water were available ad libitumn.
The injury device consisted of a microprocessor-controlled pneumatic impactor with a 3.5 mm diameter tip. The impactor is vertically mounted on a mill table (Sherline, USA) which allows for precise adjustment in the vertical plane above the mouse head, which itself is secured to a stereotaxic apparatus (David Kopf Instruments, CA) attached to the instrument. The core rod of a linear voltage differential transducer (LVDT, Serotec, USA) is attached to the lower end of the impactor to allow measurement of velocities between 3.0 and 9.0 m/s. Velocity of the impactor is controlled by fine tuning both positive and negative (back) air pressures. An oscilloscope (Tektronix, USA) records the time/displacement curve produced by the downward force on the LVDT, allowing precise measurement of the impactor velocity.
Surgical anesthesia was induced and maintained with 4% and 2% isoflurane respectively, using a flow rate of 1.0-1.5 l oxygen per minute. Depth of anesthesia was assessed by monitoring respiration rate and palpebral and pedal-withdrawal reflexes. The animal was then placed onto a heated pad and core body temperature was monitored and maintained at 38+/−0.2° C. The head was mounted in a stereotaxic frame and the surgical site clipped and prepared with a series of three Nolvasan scrubs followed by sterile saline rinses. A 10 mm mid-line incision was made over the skull, the skin and fascia reflected, and a 4 mm craniotomy made on the central aspect of the left parietal bone with a tissue punch (Roboz, USA). Great care was taken with the removal of the parietal bone to avoid injury to the underlying dura mater which was continuously bathed in sterile normal saline warmed to 37.5° C. The impounder tip of the pneumatic injury device was cleaned with a pad, soaked in absolute alcohol, positioned to the surface of the exposed dura and automatically withdrawn the 44 mm stroke distance. Following injury at a moderate (6.0 m/s velocity, 1 mm tissue deformation depth) level, the incision was closed with interrupted 6-0 silk sutures, anaesthesia was discontinued and the mouse was placed into a heated cage to maintain normothermia for 45 minutes post-injury. All animals were monitored carefully for at least 4 hours post-surgery and then daily. To minimize variation between animals due to anaesthesia during acute neurological testing, 20 minutes was allowed for surgery and 5 minutes for suturing for each animal.
Conscious mice were placed in a mouse restrainer and injected via the lateral tail vein with either normal saline (injured controls; n=6), 1 mg/kg Compound 2a (n=8), Compound 10b (n=6), Compound 11b (n=6) or Compound 14c (n=6) at 30 minutes following controlled cortical impact injury (CCI). The values for n represents the number of mice in the particular treatment group. The investigator was blinded to drug treatment both at the time of surgery and for neurological and behavioral scoring.
Chronic neurological recovery was evaluated for all animals using a beam walking task, a method which is particularly good at discriminating fine motor coordination differences between injured and sham-operated animals. The device consisted of a narrow wooden beam 6 mm wide and 120 mm in length which was suspended 300 mm above a 60 mm-thick foam rubber pad. The mouse was placed on one end of the beam and the number of footfaults for the right hindlimb recorded over 50 steps counted in either direction on the beam. A basal level of competence at this task was established before surgery with an acceptance level of <10 faults per 50 steps. […]

Data set [11] concerns traumatic spinal cord injury. Particulars: in vivo; cited from earlier work.
The test system of data set [12] is rats following moderate fluid percussion injury. In words: Mortality after moderate fluid percussion injury. Format: in vivo, Male Sprague-Dawley rats. The settings on record: 1 mg/kg i.v. 30 min following moderate fluid percussion injury; died before the end of the study; saline 21.4% and 37.5%. The protocol: Rats were anesthetized with sodium pentobarbital (70 mg/kg i.p.), intubated, and implanted with femoral venous and arterial catheters. Brain temperature was assessed indirectly through a thermister in the temporalis muscle. Body temperature was maintained through a feedback-controlled heating blanket. Blood pressure was continuously monitored, and arterial blood gases analyzed periodically. After the animal was placed in a stereotaxic frame, the scalp and temporal muscle were reflected, and a small craniotomy (5 mm) located midway between the lambda and bregma sutures over the left parietal cortex allowed insertion of a Leur-Loc that is cemented in place. The fluid-percussion head injury device, manufactured by the Medical College of Virginia, consists of a plexiglass cylindrical reservoir filled with isotonic saline; one end includes a transducer that is mounted and connected to a 5 mm tube that attaches through a male Leur-Loc fitting to the female Leur-Loc cemented at the time of surgery. A pendulum strikes a piston at the opposite end of the device, producing a pressure pulse of approximately 22 msec duration, leading to deformation of underlying brain. The degree of injury is related to the pressure pulse, expressed in atmospheres (atm): 2.6 atm in our laboratory produces a moderate injury with regard to neurological and histological deficit. Sham (control) animals undergo anesthesia and surgery without fluid percussion brain injury. […]
as §2

For the compound `NC(=O)[C@@H]1CCCN1C(=O)[C@H](Cc1cnc[nH]1)NC(=O)[C@@H]1CCC(=O)N1` [TRH, L-pyroglutamyl-L-histidyl-L-prolinamide], the plasma half-life in [1] is 4 to 5 min. Besides, the “neurological deficits after traumatic spinal cord injury” value in data set [2] is given as “reduces neurological deficits”. In data set [3], the “electrical activity and neurological recovery after brainstem compression” value was “improve electrical activity and neurological recovery”. Moreover, the “postconcussional behavioral suppression following head impact trauma” value in data set [4] is “shorten postconcussional behavioral suppression”.

Regarding `NC(=O)[C@@H]1CCCN1C(=O)[C@H](Cc1cnc[nH]1)NC(=O)[C@@H]1CC(=O)N1` [YM-14673, N^α-[(S)-4-Oxo-Azetidine-2-Carbonyl]-L-Histidyl-L-Prolinamide], the core temperature maintained in data set [5] is 37-38 °C. Moreover, the “latency to recovery of righting reflex compared with saline” value in data set [6] is listed as “significantly attenuated”. Also, the “mean arterial blood pressure (MAP) compared with vehicle / other groups” value in data set [7] is given as “significantly higher MAP”. Also, in data set [8], the “duration of action relative to TRH (longer acting)” value is 8-36 times and the “potency relative to TRH” value is reported as 10-100 times. The “chronic neurological recovery following trauma” value in data set [9] was “improved chronic neurological recovery”.

Take `NC(=O)[C@@H]1CCCN1C(=O)C1(NC(=O)[C@@H]2CC(=O)N2)CC1` [Compound 10b, N^1-[1-[N—[(S)-4-Oxo-Azetidine-2-Carbonyl]Amino]Cyclopropane-Carbonyl]Prolinamide]: the “performance deficits in the beamwalking task compared with saline vehicle” value in [10] is “attenuated”.

`C[C@H]1SC[C@@H](C(=O)N[C@H](Cc2c[nH]cn2)C(=O)N2CCC[C@H]2C(N)=O)NC1=O` [CG3703]: in [11], the “outcome following traumatic spinal cord injury” value is “improve outcome”.

In the case of `CC1(C)CCN(C(=O)[C@H](Cc2cnc[nH]2)NC(=O)[C@@H]2CCC(=O)N2)[C@@H]1C(N)=O` [RX-77368], the “outcome following traumatic spinal cord injury” value in data set [11] is “ineffective”.

As to `NC(=O)[C@@H]1CCCN1C(=O)C1(NC(=O)[C@@H]2CC(=O)N2)CCCCC1` [Compound 11b], the “performance deficits in the beamwalking task compared with saline vehicle” value in [10] is reported as “attenuated”.

For the compound `NC(=O)[C@@H]1CCCN1C(=O)[C@H](Cc1cnc[nH]1)NC(=O)c1cc(=O)[nH]c(=O)[nH]1` [CG3509], the “outcome following traumatic spinal cord injury” value in [11] is on record as “improve outcome”.

In data set [12], `O=C1NC2(CC2)C(=O)N2CCC[C@@H]12` [Compound 1a, Cyclo [(1-Amino-1-Cyclopropane-Carboxylic Acid)-Pro]] had a mortality rate of 28.6%.

As to `NC(=O)[C@H]1CSCN1C(=O)[C@H](Cc1cnc[nH]1)NC(=O)[C@@H]1CCCC(=O)N1` [MK-771], the “outcome following traumatic spinal cord injury” value in data set [11] is given as “ineffective”.

As to `CC(C)(C)SC[C@@H]1NC(=O)[C@@H]2CCCN2C1=O` [Compound 4a, Cyclo(t-Butyl-Cys-Pro)], in [12], the mortality rate is on record as 0%.
